Key:
[1] = test system: PAF-induced bronchoconstriction in the guinea pig; test: Reversal of PAF-induced bronchoconstriction in anaesthetised guinea-pigs (modified Konzett-Rossler); type: in vivo, guinea-pig (male Dunkin-Hartley); details: Cavia porcellus, iv, PAF 40 ng/kg/min i.v., read-out: ED50 (dose resulting in 50% reversal of PAF-induced bronchoconstriction)
Description: The inhibition of PAF induced bronchoconstriction was measured in anaesthetised artificially ventilated guinea-pigs (450-500 g) using a modified version of the Konzett-Rossler technique (Konzett M and Rossler R, Naunym-Schmiedeb. Arch. Exp. Pathol. Pharmakol., 1940, 197, 71). Male Dunkin-Hartley guinea-pigs were anaesthetised with urethane, 1.6 g·kg^-1. Through a midline neck incision, the trachea was cannulated and the animal ventilated with a constant tidal volume set between 5 and 15 ml, to give a tracheal inflation pressure of 15 mmHg at a rate of 40 per minute. A carotid artery was cannulated for the measurement of blood pressure and heart rate and both jugular veins were cannulated, one for the infusion of PAF and the other for the administration of test compounds. PAF, 40 ng·kg^-1 ·min^-1, was infused i.v. to produced a 100% increase in tracheal inflation pressure, and bronchoconstrictor effects were determined.

[2] = test system: PAF-induced hypotension in the rat; test: Reversal of PAF-induced hypotension in anaesthetised rats; type: in vivo, rat (male Sprague-Dawley); details: iv, i.v. bolus, PAF 100 ng/kg/min i.v., straight line interpolation, read-out: ED50 (dose to cause 50% reversal of the hypotensive PAF response)
Description: Male Sprague-Dawley rats (300-400 g) were anaesthetised with a mixture of sodium pentobarbitone, 22.5 mg·kg^-1 and thiopental 62.5 mg·kg^-1. Through a midline incision in the neck, the trachea was cannulated and the animals breathed spontaneously. A carotid artery was cannulated for the measurement of blood pressure and this signal was used to trigger a rate meter to measure heart rate. Both jugular veins were cannulated: one for the infusion of PAF and the other for the bolus administration of test compounds.
PAF, 100 ng·kg^-1 .min^-1 was infused i.v. until a sustained fall in mean blood pressure of 50 mmHg was achieved. […] The peak of this reversal was measured and the dose to cause a 50% reversal of the hypotensive PAF response (ED50) calculated by straight line interpolation and the results are presented in Table 2.

[3] = test system: endotoxin induced hypotension in the rat; test: Reversal of endotoxin induced hypotension in anaesthetised rats; type: in vivo; details: iv, i.v. bolus, E. coli endotoxin 0111:B4, straight line interpolation, read-out: ED50 (dose resulting in 50% reversal of endotoxin induced hypotension)
Description: Rats were anaesthetised with a mixture of sodium pentobarbitone, 22.5 mg·kg^-1, and thiopental, 62.5 mg·kg^-1. The animals breathed spontaneously, air enriched with oxygen, and a carotid artery was cannulated for the measurement of blood pressure and heart rate. […] Test compounds were administered i.v. via the other jugular vein as a bolus.

[4] = biological target: T1, PAF receptor (Homo sapiens, UniProt P25105); test: Inhibition of [3H]-PAF receptor binding to human platelet plasma membrane (isotopic labelling and filtration); details: human platelet membranes, 0.5 nM [3H]-PAF, 0° C., 1 hour
T1 construct: Platelet concentrates were obtained from a hospital blood bank; from tissue; host or cells: human platelets (plasma membrane fraction of lysed platelets from hospital blood bank concentrates)
Description: Compounds of general formula I inhibit PAF-induced functions in both the cellular and tissue levels by changing the PAF binding to its specific receptor site. The ability of compounds of general formula I to inhibit the binding of PAF to its specific receptor binding site on human platelet plasma membranes was measured according to the pharmacological example. […] Platelet concentrates were obtained from a hospital blood bank. These platelet concentrates (500-2500 ml.) were centrifuged at 800 rpm for 10 minutes in a SORVALL RC3B centrifuge to remove the red blood cells present. (The word SORVALL is a trade mark.) The supernatant was subsequently centrifuged at 3,000 rpm in a SORVALL RC3B centrifuge to pellet the platelets present. The platelet rich pellets were resuspended in a minimum volume of buffer (150 mM NaCl, 10 mM Tris, 2 mM EDTA, pH 7.5) and layered onto Ficoll-Paque gradients, 9 ml platelet concentrate to 2 ml Ficoll, and centrifuged at 1,900 rpm for 15 minutes in a SORVALL RT6000 centrifuge. This step removes the residual red blood cells and other nonspecific material such as lymphocytes from the preparation. The platelets which form a band between the plasma and the Ficoll were removed, resuspended in the above buffer and centrifuged at 3,000 rpm for 10 minutes in a SORVALL RT6000 centrifuge. The pelleted platelets were resuspended in buffer (10 mM Tris, 5mM MgCl2, 2 mM EDTA, pH 7.0), snap freezed in liquid N2 and allowed to thaw slowly at room temperature in order to lyse the platelets. The latter step was repeated at least 3 times to ensure proper lysis. The lysed platelets were centrifuged at 3,000 rpm for 10 minutes in a SORVALL RT6000 centrifuge and resuspended in buffer. The latter step was repeated twice in order to remove any cytoplasmic proteins which may hydrolyse the […]. The prepared platelet membranes may be stored at -70° C. After thawing the prepared membranes were centrifuged in a SORVALL RT6000 at 3,000 rpm for 10 minutes and resuspended in assay buffer. The assay was conducted by preparing a series of Tris-buffered solutions of the selected antagonist of predetermined concentrations. […] Incubation was initiated by the addition of 100 μg of the isolated membrane fraction to each of the above solutions at 0° C. […] (The word WHATMAN is a trade mark.) The residue in each case was rapidly washed 4 times with 5 ml cold (4° C.) Tris-buffer solution. […] % Inhibition=[(TB-TBA)/SB]x100 where the specific binding SB=TB-NSB […]

T1 sequence (P25105 whole entry): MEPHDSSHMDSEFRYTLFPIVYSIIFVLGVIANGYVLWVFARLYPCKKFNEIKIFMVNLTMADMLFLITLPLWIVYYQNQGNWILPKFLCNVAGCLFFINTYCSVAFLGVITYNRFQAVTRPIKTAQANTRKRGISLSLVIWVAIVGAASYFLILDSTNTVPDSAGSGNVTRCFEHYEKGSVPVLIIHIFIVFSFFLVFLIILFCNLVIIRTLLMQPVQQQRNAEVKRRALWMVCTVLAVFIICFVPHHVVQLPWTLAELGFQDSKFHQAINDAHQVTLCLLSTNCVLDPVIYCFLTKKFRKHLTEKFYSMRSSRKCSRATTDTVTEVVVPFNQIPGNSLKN

Structure (SMILES)	ED50 [1] [µg/kg]	ED50 [2] [µg/kg]	ED50 [3] [µg/kg]	IC50 [4] [nM]
COc1ccc([C@H]2CC[C@@H](OCCCc3cccnc3)O2)cc1OC (relative stereo) [Example 1B, cis-O-(3-(3-pyridyl)propyl)-5-(3,4-dimethoxyphenyl)-gamma-butyrolactol ether]	2.1	9	18	
COc1ccc([C@H]2CC[C@H](OCCCn3c(C)nc4cnccc43)O2)cc1OC (relative stereo) [Example 30B, O-(3-(1H-2-Methylimidazo[4,5-c]pyridyl)propyl)-5-(3,4-dimethoxyphenyl)-gamma-butyrolactol ether]			7	7
